From patent US20130101666A1, “LIPOSOME INCLUDING ELASTIN-LIKE POLYPEPTIDE CONJUGATED TO MOIETY CONTAINING HYDROPHOBIC GROUP, CHEMOSENSITIZER AND ANTICANCER AGENT AND USE THEREOF” (SAMSUNG ELECTRONICS CO., LTD., priority 2011, published 2013) come the findings set out here.

The nature of data set [1]: Amounts of drugs entrapped in liposomes by loading method (HPLC). It counts as physicochemical. As for the experimental part: Two types of drugs, i.e., doxorubicin and verapamil, were loaded in the liposome. The loading process was performed using an ammonium sulfate gradient method (J. Control. Release 2009, 139, 73-80) or a pH-gradient method (Biochimica et Biophysica Acta 1985, 816, 294-302). In the loading process by the ammonium sulfate gradient method, a drug was added to the liposome solution formed of liposomes with 250 mM or 150 mM of ammonium sulfate inside and 25 mM of Tris-HCl buffer outside. The loading process was performed at a temperature of 37° C. for 60 minutes. In the loading process by the pH-gradient method, a drug was added to the liposome solution formed of liposomes with 300 mM of citrate buffer (pH 4.0) inside and 20 mM of HEPES buffer (150 mM NaCl, pH 7.4) outside. The loading process was performed at a temperature of 37° C. for 60 minutes.
The prepared liposome solution was passed through PD-10 (GE Healthcare) desalting column by flowing physiological saline therethrough to remove unentrapped drug.
Doxorubicin and verapamil entrapped in the liposomes were analyzed by high performance liquid chromatography (HPLC).
The liposomes co-encapsulating certain amounts of doxorubicin and verapamil were diluted and dissolved in dimethylsulfoxide (DMSO) and then introduced into a HPLC column. The analysis by HPLC was performed by eluting the drugs using KH2PO4/MeCN as an eluent and measuring absorbance thereof at 280 nm.
In the loading process, initial concentrations of doxorubicin and verapamil were 500 μg and 250 μg, respectively, based on 1 mL of the liposome solution.

In data set [2] the test system is NCI/ADR-RES cells. Description: cells. Conditions: Homo sapiens, 10 min, read-out: cell viability.
Description: (§1) In addition, cytotoxicity of the liposome with doxorubicin and verapamil entrapped therein against NCI/ADR-RES cells was confirmed. […] 50% based on the weight of doxorubicin of verapamil, was contained in the liposome. […] In this experiment, NCI/ADR-RES cells were incubated in each of a MEM containing free doxorubicin and a MEM containing the liposome with doxorubicin and verapamil entrapped therein, 10 volume % FBS, and 1 wt % PS at 37° C. for 48 hours. In particular, NCI/ADR-RES cells (5.0×10^4 cells) were cultured in MEM containing 10% (v/v) FBS and 1% penicillin/streptomycin in a well of the 24-well plate for 48 hours. The cultured NCI/ADR-RES cells were treated with the liposomes containing doxorubicin and verapamil at a variety of concentrations, immediately placed in a thermoshaker, and then incubated at 37° C. for 10 minutes. […] Thereafter, the NCI/ADR-RES cells were cultured at 37° C. for 48 hours, and the viability of the NCI/ADR-RES cells was measured using CCK-8 assay kit (Dojindo) by WST (water soluble tetrazolium) assay.
(§2) NCI/ADR-RES cells (5.0×10^4 cells) were cultured in MEM containing 10% (v/v) FBS and 1% penicillin/streptomycin in a well of the 24-well plate for 48 hours. […] Thereafter, the NCI/ADR-RES cells were cultured at 37° C. for 46 hours, and the viability of the NCI/ADR-RES cells was measured using CCK-8 assay kit (Dojindo) by WST assay. […]
In data set [3] the test system is NCI/ADR-RES cells. Conditions: 45° C. for 10 minutes; 10 ug doxorubicin/mL (liposome: +5 ug verapamil/mL); FIG. 7A/7B.
Description: as §1, §2
For data set [4], the system named is NCI/ADR-RES cells. Description: Viability of NCI/ADR-RES cells cultured in the presence of doxorubicin (WST assay). It counts as cell-based. Conditions: Homo sapiens, 20 ug/mL doxorubicin, 37° C. for 2 hours, fresh media, 2 days, FIG. 1, read-out: NCI/ADR-RES cells survived (viability). Here is the method:
Tumor cells having a resistance against doxorubicin, i.e., NCI/ADR-RES cells, were cultured in the presence of doxorubicin and the viability of the cells was evaluated. NCI/ADR-RES cells are tumor cells derived from OVCAR-8.
NCI/ADR-RES cells were incubated in minimum essential media (MEM) containing various concentrations of doxorubicin (0.1, 0.5, 1.0, 2.5, 5.0, 10 or 20 ug/mL), 10 volume % fetal bovine serum (FBS), and 1 wt % penicillin-streptomycin (PS) at 37° C. for 2 hours. After the MEM was replaced with fresh media, the cells were incubated at 37° C. for 2 days. The viability of the cells was evaluated by water soluble tetrazolium (WST) assay. FIG. 1 is a graph showing the viability of NCI/ADR-RES cells when being cultured in the presence of doxorubicin.

Setting [5] is: ammonium sulfate gradient method, 150 mM ammonium sulfate (inside), 25 mM Tris HCl buffer (outside), initial doxorubicin 500 μg, verapamil 250 μg per 1 mL.

With `COc1ccc(CCN(C)CCCC(C#N)(c2ccc(OC)c(OC)c2)C(C)C)cc1OC` (racemic) [Verapamil, (RS)-2-(3,4-dimethoxyphenyl)-5-{[2-(3,4-dimethoxyphenyl)ethyl]-(methyl)amino}-2-prop-2-ylpentanenitrile], the “amount of entrapped verapamil” value in data set [1] (setting [5]) worked out at 1.4 µg/mL.
`COc1cccc2c1C(=O)c1c(O)c3c(c(O)c1C2=O)C[C@@](O)(C(=O)CO)C[C@@H]3O[C@H]1C[C@H](N)[C@H](O)[C@H](C)O1` [Doxorubicin, doxorubicin]: the viability at 20 µg/mL with NCI/ADR-RES cells [2] is 50%; with NCI/ADR-RES cells [4] it was above 70%. Further, in the data set on NCI/ADR-RES cells [3], the cell viability result is given as “about 70%”. In addition, the “amount of entrapped doxorubicin” value in data set [1] (setting [5]) is 36.5 µg/mL; in data set [1] (ammonium sulfate gradient method, 250 mM ammonium sulfate (inside), 25 mM Tris HCl buffer (outside), initial doxorubicin 500 μg, verapamil 250 μg per 1 mL), 404 µg/mL; in data set [1] (pH-gradient method, 300 mM citrate buffer (pH 4.0) (inside), 20 mM HEPES buffer (150 mM NaCl, pH 7.4) (outside)), 42 µg/mL.
